Assay [1] deals with T1, SOS1 catalytic domain (residues 564-1049) (Homo sapiens, UniProt Q07889).
T1 sequence (Q07889 564-1049): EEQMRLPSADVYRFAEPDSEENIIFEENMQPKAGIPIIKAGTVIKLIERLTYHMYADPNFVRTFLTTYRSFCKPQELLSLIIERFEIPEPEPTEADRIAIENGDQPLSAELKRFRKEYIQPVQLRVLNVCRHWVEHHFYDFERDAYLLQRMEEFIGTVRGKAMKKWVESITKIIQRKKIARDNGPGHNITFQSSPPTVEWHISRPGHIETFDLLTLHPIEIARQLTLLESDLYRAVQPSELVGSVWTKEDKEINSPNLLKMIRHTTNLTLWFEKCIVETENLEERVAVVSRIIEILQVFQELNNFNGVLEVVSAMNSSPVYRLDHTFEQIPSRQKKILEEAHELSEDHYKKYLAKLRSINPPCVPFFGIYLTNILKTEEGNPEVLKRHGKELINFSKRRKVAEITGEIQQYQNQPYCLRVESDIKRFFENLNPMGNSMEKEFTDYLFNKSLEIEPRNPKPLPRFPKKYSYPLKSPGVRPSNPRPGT
Put plainly: Potency Assay: binding affinity to SOS1 using Surface Plasmon Resonance (SPR). On the set-up: SOS1 catalytic domain (residues 564-1049) immobilized on a sensor chip. The conditions noted are these: immobilized SOS1 catalytic domain (residues 564-1049), read-out: SOS1 SPR Equilibrium Kd. As to the method: Data was reported as equilibrium dissociation constant (Kd) values.
Using a GE Biacore 8K SPR instrument, avi-tagged SOS1 catalytic domain protein was immobilized to a level of approximately 6000 response units (RU) on a streptavidin-coated SPR sensor chip in assay buffer containing 0.01 M HEPES, 0.15 M NaCl and 0.05% v/v Surfactant P20. […] For each test compound, a separate 0 μM sample was generated for use during subsequent double reference subtraction. Serially for each test compound, individual dilution samples were flowed over the immobilized SOS1 protein at a flow rate of 50 μL/minute to monitor the association with SOS1. Dissociation of bound test compound from the SOS1 protein was immediately monitored by flowing assay buffer over the sensor surface and monitoring the decrease in binding signal back to the baseline level seen in the absence of compound. This was repeated for all compound dilutions in each series. The binding level response for each test compound concentration was noted immediately prior to the end of the association phase, and a secondary plot generated showing binding response level versus test compound concentration generated for each compound dilution series.

Assay [2] concerns the target T1, SOS1 catalytic domain (residues 564-1049). Put plainly: Mode of Action Assay: inhibition of SOS1 nucleotide exchange activity (SOS1 TR-FRET IC50 Assay).

Molecules are shown by their SMILES.

For `Cc1nc2c(c(N[C@H](C)c3cc(N)cc(C(F)(F)F)c3)n1)CN(c1ccc(Br)cn1)C2` [Example 44, N-[(1R)-1-[3-amino-5-(trifluoromethyl)phenyl]ethyl]-6-(5-bromo-2-pyridyl)-2-methyl-5,7-dihydropyrrolo[3,4-d]pyrimidin-4-amine], in assay [1], the dissociation constant Kd is more than 400 nM. The same compound returned an IC50 in assay [2] of more than 1000 nM.
`CC(Nc1nc(Cl)nc2c1CN(C(=O)N1CCOCC1)C2)c1cc(N)cc(C(F)(F)F)c1F` (stereo not drawn) [Example 461, (4-((1-(5-amino-2-fluoro-3-(trifluoromethyl)phenyl)ethyl)amino)-2-chloro-5,7-dihydro-6H-pyrrolo[3,4-d]pyrimidin-6-yl)(morpholino)methanone]: the Kd in assay [1] is less than 400 nM. In addition, the IC50 in assay [2] was less than 1000 nM.
For `C[C@@H]1CN(C(=O)N2Cc3nc(Cl)nc(N[C@H](C)c4cc(N)cc(C(F)(F)F)c4)c3C2)C[C@H](C)O1` [Example 163], in that order: less than 400 nM and less than 1000 nM.
`C[C@@H](Nc1nc(C(F)(F)F)nc2c1CN(C(=O)N1CCOCC1)C2)c1cc(N)cc(C(F)(F)F)c1` [Example 127, N-[(1R)-1-[3-amino-5-(trifluoromethyl)phenyl]ethyl]-6-(morpholine-4-carbonyl)-2-(trifluoromethyl)-5H,6H,7H-pyrrolo[3,4-d]pyrimidin-4-amine]: in assay [1], the Kd is less than 400 nM. The compound also came in with a half-inhibitory concentration (IC50) in assay [2] of more than 1000 nM.
`C[C@@H](Nc1nc(Cl)nc2c1CN(C(=O)C1CCOCC1)C2)c1cc(N)cc(C(F)(F)F)c1` [Example 116, N-[(1R)-1-[3-amino-5-(trifluoromethyl)phenyl]ethyl]-2-chloro-6-(oxane-4-carbonyl)-5H,6H,7H-pyrrolo[3,4-d]pyrimidin-4-amine]: in assay [1], the Kd was less than 400 nM. This compound had a half-inhibitory concentration (IC50) in assay [2] of less than 1000 nM.
For `C[C@@H](Nc1nc(Cl)nc2c1CN(C(=O)c1cnn(C3CCOCC3)c1)C2)c1cc(N)cc(C(F)(F)F)c1` [Example 96], in that order: less than 400 nM and more than 1000 nM.
In the case of `C[C@@H](Nc1nc(OC2COC2)nc2c1CN(C(=O)N1CCOCC1)C2)c1cc(N)cc(C(F)(F)F)c1` [Example 133, N-[(1R)-1-[3-amino-5-(trifluoro-methyl)phenyl]ethyl]-6-(morpholine-4-carbonyl)-2-(oxetan-3-yl-oxy)-5H,6H,7H-pyrrolo[3,4-d]pyrimidin-4-amine], in assay [1], the Kd was more than 400 nM. Moreover, the IC50 in assay [2] is more than 1000 nM.
The matching figures for `C[C@@H](Nc1nc(Cl)nc2c1CN(C(=O)N1CCc3ncccc3C1)C2)c1cc(N)cc(C(F)(F)F)c1` [Example 147]: less than 400 nM and more than 1000 nM.
For `COC1(C(=O)N2Cc3nc(C(F)(F)CO)nc(N[C@H](C)c4cccc(C(F)F)c4F)c3C2)CCOCC1` [Example 487, (R)-(2-(1,1-difluoro-2-hydroxyethyl)-4-((1-(3-(difluoromethyl)-2-fluorophenyl)ethyl)amino)-5,7-dihydro-6H-pyrrolo[3,4-d]pyrimidin-6-yl)(4-methoxytetrahydro-2H-pyran-4-yl)methanone], in that order: less than 400 nM and less than 1000 nM.
For the compound `C[C@@H](Nc1nc(Cl)nc2c1CN(C(=O)N1CCN(C)c3ncncc31)C2)c1cccc(C(F)F)c1F` [Example 428], the Kd in assay [1] was less than 400 nM. In assay [2], this compound returned a half-inhibitory concentration (IC50) of less than 1000 nM.
For `C[C@@H](Nc1nc(Cl)nc2c1CN(C(=O)N1CCN(C)c3ncccc31)C2)c1cccc(C(F)F)c1F` [Example 426], in that order: more than 400 nM and less than 1000 nM.
For `C[C@@H](Nc1nc(Cl)nc2c1CN(C(=O)C1CN(C)C1)C2)c1cc(N)cc(C(F)(F)F)c1` [Example 100], the dissociation constant (Kd) in assay [1] was less than 400 nM. Further, the concentration for half-maximal inhibition (IC50) in assay [2] was less than 1000 nM.
As to `C[C@@H](Nc1nc(Cl)nc2c1CN(C(=O)c1csc(N3CCOCC3)n1)C2)c1cc(N)cc(C(F)(F)F)c1` [Example 85], the dissociation constant (Kd) in assay [1] is more than 400 nM. In addition, the IC50 in assay [2] was more than 1000 nM.
The matching figures for `C[C@@H](Nc1nc(Cl)nc2c1CN(C(=O)N1CCNc3ncccc31)C2)c1cccc(C(F)F)c1F` [Example 425]: less than 400 nM and less than 1000 nM.
For `C[C@@H](Nc1nc(Cl)nc2c1CN(C(=O)c1cnc3cc[nH]c3c1)C2)c1cc(N)cc(C(F)(F)F)c1` [Example 90], in that order: more than 400 nM and more than 1000 nM.
In the case of `C[C@@H](Nc1nc(Cl)nc2c1CN(C(=O)N1CCCC13CCOCC3)C2)c1cc(N)cc(C(F)(F)F)c1` [Example 139], the dissociation constant Kd in assay [1] is less than 400 nM. This compound showed a half-inhibitory concentration (IC50) in assay [2] of less than 1000 nM.
For `COc1cc(OC)nc(C(=O)N2Cc3nc(Cl)nc(N[C@H](C)c4cc(N)cc(C(F)(F)F)c4)c3C2)n1` [Example 63], in that order: less than 400 nM and more than 1000 nM.
Turning to `COC1(C(=O)N2Cc3nc(Cl)nc(N[C@H](C)c4cccc(C(F)F)c4F)c3C2)CCN(C(C)=O)CC1` [Example 345], in assay [1], the dissociation constant Kd was less than 400 nM. In addition, the half-inhibitory concentration (IC50) in assay [2] is less than 1000 nM.
For the compound `C[C@@H](Nc1nc(Cl)nc2c1CN(S(=O)(=O)N1CCOCC1)C2)c1cccc(C(F)(F)CO)c1` [Example 178], the Kd in assay [1] was less than 400 nM. Moreover, in assay [2], the IC50 was less than 1000 nM.
Regarding `C[C@@H](Nc1nc(Cl)nc2c1CN(C(=O)N1CCOc3ccncc31)C2)c1cc(N)cc(C(F)(F)F)c1` [Example 141], the Kd in assay [1] was less than 400 nM. This compound also displayed an IC50 in assay [2] of less than 1000 nM.
Take `CCOc1nc2c(c(N[C@H](C)c3cc(N)cc(C(F)(F)F)c3)n1)CN(C(=O)N1CCOCC1)C2` [Example 124, N-[(1R)-1-[3-amino-5-(trifluoromethyl)phenyl]ethyl]-2-ethoxy-6-(morpholine-4-carbonyl)-5H,6H,7H-pyrrolo[3,4-d]pyrimidin-4-amine]: the Kd in assay [1] was less than 400 nM. The compound also came in with an IC50 in assay [2] of less than 1000 nM.
For `C[C@@H](Nc1nc(Cl)nc2c1CN(C(=O)N1CCNCC1C(F)(F)F)C2)c1cc(N)cc(C(F)(F)F)c1` (stereo partly drawn) [Example 358], in that order: less than 400 nM and less than 1000 nM.
With `Cc1nc2c(c(N[C@H](C)c3cc(N)cc(C(F)(F)F)c3)n1)CN(C(=O)N1CCOCC1)CCC2` [Example 136, N-[(1R)-1-[3-amino-5-(trifluoromethyl)phenyl]ethyl]-2-methyl-6-(morpholine-4-carbonyl)-5H,6H,-7H,8H,9H-pyrimido[5,4-c]azepin-4-amine], the Kd in assay [1] was more than 400 nM. The same compound gave an IC50 in assay [2] of more than 1000 nM.
The matching figures for `C[C@@H]1CN(C(=O)N2Cc3nc(Cl)nc(N[C@H](C)c4cc(N)cc(C(F)(F)F)c4)c3C2)C[C@@H](C)N1` [Example 143]: less than 400 nM and less than 1000 nM.
Turning to `COC1CN([C@@H]2CCc3nc(Cl)nc(N[C@H](C)c4cc(N)cc(C(F)(F)F)c4)c3C2)C1` [Example 431], the equilibrium dissociation constant (Kd) in assay [1] is less than 400 nM. Further, the half-inhibitory concentration (IC50) in assay [2] was less than 1000 nM.
As for `C[C@@H](Nc1nc(Cl)nc2c1CN(C(=O)N1CCNC(=O)C1)C2)c1cc(N)cc(C(F)(F)F)c1` [Example 367], the Kd in assay [1] was less than 400 nM. This compound gave an IC50 in assay [2] of less than 1000 nM.
Take `COc1ccc(C(=O)N2Cc3nc(Cl)nc(N[C@H](C)c4cc(N)cc(C(F)(F)F)c4)c3C2)cc1OC` [Example 172]: in assay [1], the Kd was less than 400 nM. Further, the IC50 in assay [2] was less than 1000 nM.
With `C[C@@H](Nc1nc(Cl)nc2c1CN(C(=O)c1ccc(-n3ccnc3)cn1)C2)c1cc(N)cc(C(F)(F)F)c1` [Example 76], the Kd in assay [1] is more than 400 nM. In assay [2], this compound had a 50% inhibitory concentration (IC50) of more than 1000 nM.
The matching figures for `C[C@@H](Nc1nc(Cl)nc2c1CN(C(=O)[C@H]1CC[C@@H](O)CC1)C2)c1cc(N)cc(C(F)(F)F)c1` [Example 99]: more than 400 nM and less than 1000 nM.
Consider `C[C@@H](Nc1nc(Cl)nc2c1CN(C(=O)CN1CCOCC1)C2)c1cc(N)cc(C(F)(F)F)c1` [Example 89], for which the Kd in assay [1] was less than 400 nM. The same compound had a half-inhibitory concentration (IC50) in assay [2] of less than 1000 nM.
Take `C[C@@H](Nc1nc(Cl)nc2c1CN(S(=O)(=O)c1cn[nH]c1)C2)c1cc(N)cc(C(F)(F)F)c1` [Example 173]: the Kd in assay [1] is more than 400 nM. Also, in assay [2], the IC50 is more than 1000 nM.
As for `Cc1nc2c(c(N[C@H](C)c3cc(N)cc(C(F)(F)F)c3)n1)CN(c1ccc(Br)cn1)CC2` [Example 42, N-[(1R)-1-[3-amino-5-(trifluoromethyl)phenyl]ethyl]-6-(5-bromo-2-pyridyl)-2-methyl-7,8-dihydro-5H-pyrido[4,3-d]pyrimidin-4-amine], in assay [1], the equilibrium dissociation constant (Kd) is more than 400 nM. This compound yielded an IC50 in assay [2] of more than 1000 nM.
For `COc1cccc(C(=O)N2Cc3nc(Cl)nc(N[C@H](C)c4cc(N)cc(C(F)(F)F)c4)c3C2)n1` [Example 67], the Kd in assay [1] was more than 400 nM. In assay [2], this compound registered a half-maximal inhibitory concentration (IC50) of more than 1000 nM.

For the origin of these results see US20230096028A1, “BICYCLIC HETEROCYCLYL COMPOUNDS AND USES THEREOF” (Revolution Medicines, Inc., priority 2019, published 2023).
